From PMC3115942 (PLoS ONE, 2011)
Where two headings read alike, the source gives them in different places.

Key:
[1] = Pharmacokinetics in mouse plasma; assay type: in vivo; settings: 5 mg/kg; for Cmax / AUC(0-inf) / AUC(0-t) / half-life / k el: mouse plasma; for concentration at 5 min / concentration at 15 min / concentration at 30 min / concentration at 60 min / concentration at 120 min / concentration at 240 min: read-out: blood concentration
Protocol: For pharmacokinetic (PK) analysis, 5 mg/kg MS-0022 was given by IV, PO and IP administration to 7–8 week old male C57BL mice (mouse musculus), and blood was collected after 5, 15, 30, 60, 120, and 240 min, with n = 3. Animals were sacrificed and blood samples (∼0.5 mL each) were collected from the abdominal aorta into EDTA-containing tubes, centrifuged (2–8°C for ∼10 minutes at ∼10000 xg) and plasma harvested into single tubes for each animal and frozen (∼−70°C). Blood samples were analyzed by ChemDiv^'s bioanalytical department. The maximum concentration (Cmax), total drug exposure (the area under the curve to the last quantifiable concentration (AUClast) and as the AUClast value extrapolated to infinity (AUCinf), calculated as AUCinf = AUClast+C(t)last/Kel, where C(t)last is the last measurable concentration), half-life (T1/2) calculated as ln(2)/Kel and Kel calculated as the slope of the terminal linear portion of the concentration/time curve. The WinNonlin Professional 5.2 software (Pharsight Corp.) was used for the calculation of the PK parameters.

[2] = target: T1, CaMKI(h) (Homo sapiens, UniProt Q14012); test: Millipore kinaseprofiler diversity array; assay type: biochemical; settings: 10 µM MS-0022
T1 construct: purchased Millipore (Upstate) KinaseProfiler
Protocol: (§1) Table 4 Kinase activity in presence of 10 µM MS-0022 in a kinaseprofiler diversity array. | column: Activity %

[3] = target: T2, KDR(h) (Homo sapiens, UniProt P35968); test: Millipore kinaseprofiler diversity array; assay type: biochemical; settings: 10 µM MS-0022
T2 construct: purchased Millipore (Upstate) KinaseProfiler
Protocol: as §1

[4] = target: T3, Plk3(h) (Homo sapiens, UniProt Q9H4B4); test: Millipore kinaseprofiler diversity array; assay type: biochemical; settings: 10 µM MS-0022
T3 construct: purchased Millipore (Upstate) KinaseProfiler
Protocol: as §1

[5] = target: T4, Abl(h) (Homo sapiens, UniProt P00519); test: Millipore kinaseprofiler diversity array; assay type: biochemical; settings: 10 µM MS-0022
T4 construct: purchased Millipore (Upstate) KinaseProfiler
Protocol: as §1

[6] = target: T5, DYRK2(h) (Homo sapiens, UniProt Q92630); test: Millipore kinaseprofiler diversity array; assay type: biochemical; settings: 10 µM MS-0022
T5 construct: purchased Millipore (Upstate) KinaseProfiler
Protocol: as §1

[7] = target: T6, PKA(h) (Homo sapiens, UniProt P17612); test: Millipore kinaseprofiler diversity array; assay type: biochemical; settings: 10 µM MS-0022
T6 construct: purchased Millipore (Upstate) KinaseProfiler
Protocol: as §1

[8] = target: T7, SAPK2a(h) (Homo sapiens, UniProt Q16539); test: Millipore kinaseprofiler diversity array; assay type: biochemical; settings: 10 µM MS-0022
T7 construct: purchased Millipore (Upstate) KinaseProfiler
Protocol: as §1

[9] = target: T8, JAK2(h) (Homo sapiens, UniProt O60674); test: Millipore kinaseprofiler diversity array; assay type: biochemical; settings: 10 µM MS-0022
T8 construct: purchased Millipore (Upstate) KinaseProfiler
Protocol: as §1

[10] = target: T9, MEK1(h) (Homo sapiens, UniProt Q02750); test: Millipore kinaseprofiler diversity array; assay type: biochemical; settings: 10 µM MS-0022
T9 construct: purchased Millipore (Upstate) KinaseProfiler
T9 sequence (Q02750 whole entry): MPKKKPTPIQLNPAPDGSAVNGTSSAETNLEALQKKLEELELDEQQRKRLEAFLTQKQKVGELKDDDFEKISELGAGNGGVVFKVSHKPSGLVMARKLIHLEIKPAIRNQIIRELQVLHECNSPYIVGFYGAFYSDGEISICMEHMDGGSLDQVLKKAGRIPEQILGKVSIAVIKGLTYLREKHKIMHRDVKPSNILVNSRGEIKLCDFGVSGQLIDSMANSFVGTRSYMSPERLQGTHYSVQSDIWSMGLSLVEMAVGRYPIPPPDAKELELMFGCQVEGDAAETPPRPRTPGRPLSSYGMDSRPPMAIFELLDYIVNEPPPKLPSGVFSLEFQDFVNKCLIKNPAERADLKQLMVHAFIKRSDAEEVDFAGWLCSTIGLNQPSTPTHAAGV
Protocol: as §1

[11] = target: T10, GSK3β(h) (Homo sapiens, UniProt P49841); test: Millipore kinaseprofiler diversity array; assay type: biochemical; settings: 10 µM MS-0022
T10 construct: purchased Millipore (Upstate) KinaseProfiler
T10 sequence (P49841 whole entry): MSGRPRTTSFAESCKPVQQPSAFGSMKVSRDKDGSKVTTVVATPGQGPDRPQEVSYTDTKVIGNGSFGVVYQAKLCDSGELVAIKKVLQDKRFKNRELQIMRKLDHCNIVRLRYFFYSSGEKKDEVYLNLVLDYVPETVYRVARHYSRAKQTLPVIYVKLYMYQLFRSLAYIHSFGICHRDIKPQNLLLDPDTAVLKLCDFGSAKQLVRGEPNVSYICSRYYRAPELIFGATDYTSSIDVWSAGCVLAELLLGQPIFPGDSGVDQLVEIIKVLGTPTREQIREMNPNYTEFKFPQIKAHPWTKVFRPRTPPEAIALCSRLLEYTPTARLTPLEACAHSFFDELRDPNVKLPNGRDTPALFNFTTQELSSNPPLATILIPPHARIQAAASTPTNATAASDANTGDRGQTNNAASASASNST
Protocol: as §1

[12] = target: T11, LOK(h) (Homo sapiens, UniProt O94804); test: Millipore kinaseprofiler diversity array; assay type: biochemical; settings: 10 µM MS-0022
T11 construct: purchased Millipore (Upstate) KinaseProfiler
Protocol: as §1

[13] = target: T12, MLK1(h) (Homo sapiens, UniProt P80192); test: Millipore kinaseprofiler diversity array; assay type: biochemical; settings: 10 µM MS-0022
T12 construct: purchased Millipore (Upstate) KinaseProfiler
Protocol: as §1

[14] = target: T13, CDK1/cyclinB(h) (Homo sapiens, UniProt P06493); test: Millipore kinaseprofiler diversity array; assay type: biochemical; settings: 10 µM MS-0022
T13 construct: purchased Millipore (Upstate) KinaseProfiler
T13 sequence (P06493 whole entry): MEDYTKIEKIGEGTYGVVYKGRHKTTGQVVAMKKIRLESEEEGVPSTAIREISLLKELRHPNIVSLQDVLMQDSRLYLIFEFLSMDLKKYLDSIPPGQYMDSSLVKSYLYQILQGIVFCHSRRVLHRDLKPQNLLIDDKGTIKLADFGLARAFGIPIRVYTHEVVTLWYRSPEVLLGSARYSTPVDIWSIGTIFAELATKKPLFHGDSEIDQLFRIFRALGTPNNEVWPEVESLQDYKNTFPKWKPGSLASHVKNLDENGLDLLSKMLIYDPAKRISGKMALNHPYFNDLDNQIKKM
T13 sequence (P14635 whole entry partner): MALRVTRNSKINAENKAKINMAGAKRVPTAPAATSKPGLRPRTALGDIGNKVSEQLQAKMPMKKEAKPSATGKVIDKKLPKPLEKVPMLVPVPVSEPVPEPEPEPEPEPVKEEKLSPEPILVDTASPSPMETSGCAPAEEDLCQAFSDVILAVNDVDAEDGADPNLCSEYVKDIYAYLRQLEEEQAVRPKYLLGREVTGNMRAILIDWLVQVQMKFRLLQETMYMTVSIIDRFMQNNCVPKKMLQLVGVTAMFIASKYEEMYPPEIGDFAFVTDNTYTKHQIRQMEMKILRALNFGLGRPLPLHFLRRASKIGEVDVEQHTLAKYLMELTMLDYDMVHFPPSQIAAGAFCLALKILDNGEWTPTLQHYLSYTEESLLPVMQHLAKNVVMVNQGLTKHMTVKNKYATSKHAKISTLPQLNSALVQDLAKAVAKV
Protocol: as §1

[15] = target: T14, PKCα(h) (Homo sapiens, UniProt P17252); test: Millipore kinaseprofiler diversity array; assay type: biochemical; settings: 10 µM MS-0022
T14 construct: purchased Millipore (Upstate) KinaseProfiler
Protocol: as §1

[16] = target: T15, Pim-1(h) (Homo sapiens, UniProt P11309); test: Millipore kinaseprofiler diversity array; assay type: biochemical; settings: 10 µM MS-0022
T15 construct: purchased Millipore (Upstate) KinaseProfiler
T15 sequence (P11309 whole entry): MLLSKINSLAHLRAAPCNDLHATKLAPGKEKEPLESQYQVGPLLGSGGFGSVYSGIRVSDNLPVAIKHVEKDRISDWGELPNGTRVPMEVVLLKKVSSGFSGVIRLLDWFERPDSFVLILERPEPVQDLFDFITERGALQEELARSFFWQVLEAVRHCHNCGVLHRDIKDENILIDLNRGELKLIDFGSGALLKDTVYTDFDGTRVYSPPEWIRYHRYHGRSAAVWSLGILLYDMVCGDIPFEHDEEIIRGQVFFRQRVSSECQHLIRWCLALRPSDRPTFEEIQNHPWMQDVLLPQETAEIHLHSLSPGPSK
Protocol: as §1

[17] = target: T16, CK1γ1(h) (Homo sapiens, UniProt Q9HCP0); test: Millipore kinaseprofiler diversity array; assay type: biochemical; settings: 10 µM MS-0022
T16 construct: purchased Millipore (Upstate) KinaseProfiler
T16 sequence (Q9HCP0 whole entry): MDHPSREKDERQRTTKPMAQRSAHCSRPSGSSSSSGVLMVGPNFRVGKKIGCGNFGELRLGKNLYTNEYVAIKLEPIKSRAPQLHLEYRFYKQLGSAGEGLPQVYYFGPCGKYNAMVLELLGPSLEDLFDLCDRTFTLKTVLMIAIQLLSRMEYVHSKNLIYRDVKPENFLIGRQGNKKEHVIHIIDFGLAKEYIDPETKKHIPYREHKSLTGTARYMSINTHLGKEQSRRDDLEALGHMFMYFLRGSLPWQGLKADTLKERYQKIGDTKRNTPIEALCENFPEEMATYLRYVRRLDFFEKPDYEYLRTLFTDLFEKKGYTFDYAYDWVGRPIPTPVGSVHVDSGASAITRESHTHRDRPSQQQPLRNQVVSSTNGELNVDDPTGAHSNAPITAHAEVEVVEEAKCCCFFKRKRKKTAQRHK
Protocol: as §1

[18] = target: T17, PDGFRβ(h) (Homo sapiens, UniProt P09619); test: Millipore kinaseprofiler diversity array; assay type: biochemical; settings: 10 µM MS-0022
T17 construct: purchased Millipore (Upstate) KinaseProfiler
Protocol: as §1

[19] = target: T18, EGFR(h) (Homo sapiens, UniProt P00533); test: Millipore kinaseprofiler diversity array; assay type: biochemical; settings: 10 µM MS-0022
T18 construct: purchased Millipore (Upstate) KinaseProfiler
T18 sequence (P00533 25-1210): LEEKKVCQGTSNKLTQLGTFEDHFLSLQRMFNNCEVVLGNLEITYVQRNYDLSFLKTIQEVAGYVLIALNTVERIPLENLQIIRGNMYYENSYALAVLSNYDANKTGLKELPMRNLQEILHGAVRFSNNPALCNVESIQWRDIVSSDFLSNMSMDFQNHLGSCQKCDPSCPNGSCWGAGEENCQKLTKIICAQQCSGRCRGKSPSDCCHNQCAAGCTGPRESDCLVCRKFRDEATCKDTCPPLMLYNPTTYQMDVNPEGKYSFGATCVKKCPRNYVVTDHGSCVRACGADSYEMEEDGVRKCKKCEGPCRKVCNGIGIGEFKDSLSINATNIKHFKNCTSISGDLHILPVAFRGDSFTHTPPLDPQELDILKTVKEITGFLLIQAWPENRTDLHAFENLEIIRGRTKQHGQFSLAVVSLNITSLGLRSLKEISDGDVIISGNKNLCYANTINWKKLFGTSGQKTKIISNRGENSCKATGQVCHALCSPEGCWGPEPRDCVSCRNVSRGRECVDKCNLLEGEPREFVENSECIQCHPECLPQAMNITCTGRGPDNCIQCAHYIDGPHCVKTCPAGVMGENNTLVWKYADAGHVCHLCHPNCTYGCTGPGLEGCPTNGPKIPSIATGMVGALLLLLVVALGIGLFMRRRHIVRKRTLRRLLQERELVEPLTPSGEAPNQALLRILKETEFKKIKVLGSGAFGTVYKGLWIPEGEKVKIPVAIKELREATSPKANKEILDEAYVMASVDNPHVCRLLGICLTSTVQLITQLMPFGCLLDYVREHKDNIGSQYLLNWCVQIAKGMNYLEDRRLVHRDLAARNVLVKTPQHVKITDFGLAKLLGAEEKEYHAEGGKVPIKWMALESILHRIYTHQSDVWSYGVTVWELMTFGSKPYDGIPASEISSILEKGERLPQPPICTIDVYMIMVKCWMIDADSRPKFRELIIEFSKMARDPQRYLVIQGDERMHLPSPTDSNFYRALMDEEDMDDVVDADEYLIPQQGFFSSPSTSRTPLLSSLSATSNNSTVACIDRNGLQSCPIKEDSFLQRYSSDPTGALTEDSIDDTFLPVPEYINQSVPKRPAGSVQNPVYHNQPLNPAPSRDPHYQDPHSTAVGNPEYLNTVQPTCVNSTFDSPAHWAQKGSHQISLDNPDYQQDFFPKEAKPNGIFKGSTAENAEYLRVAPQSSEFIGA
Protocol: as §1

[20] = target: T19, Lyn(h) (Homo sapiens, UniProt P07948); test: Millipore kinaseprofiler diversity array; assay type: biochemical; settings: 10 µM MS-0022
T19 construct: purchased Millipore (Upstate) KinaseProfiler
T19 sequence (P07948 whole entry): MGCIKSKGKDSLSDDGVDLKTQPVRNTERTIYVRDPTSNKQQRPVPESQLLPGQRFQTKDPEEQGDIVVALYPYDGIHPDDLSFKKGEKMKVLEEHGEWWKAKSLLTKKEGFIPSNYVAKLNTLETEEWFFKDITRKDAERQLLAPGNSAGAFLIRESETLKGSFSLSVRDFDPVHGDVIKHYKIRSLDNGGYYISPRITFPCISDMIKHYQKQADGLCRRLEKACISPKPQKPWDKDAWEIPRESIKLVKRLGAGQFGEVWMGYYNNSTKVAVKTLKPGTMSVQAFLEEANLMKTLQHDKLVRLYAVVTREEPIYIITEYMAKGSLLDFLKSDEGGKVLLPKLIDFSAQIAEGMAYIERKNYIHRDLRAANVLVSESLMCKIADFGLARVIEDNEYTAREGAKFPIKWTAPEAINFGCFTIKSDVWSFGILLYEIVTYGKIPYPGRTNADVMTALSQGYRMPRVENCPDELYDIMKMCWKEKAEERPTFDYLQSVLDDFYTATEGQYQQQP
Protocol: as §1

[21] = target: T20, TAK1(h) (Homo sapiens, UniProt O43318); test: Millipore kinaseprofiler diversity array; assay type: biochemical; settings: 10 µM MS-0022
T20 construct: purchased Millipore (Upstate) KinaseProfiler
Protocol: as §1

[22] = target: T21, SRPK1(h) (Homo sapiens, UniProt Q96SB4); test: Millipore kinaseprofiler diversity array; assay type: biochemical; settings: 10 µM MS-0022
T21 construct: purchased Millipore (Upstate) KinaseProfiler
Protocol: as §1

[23] = target: T22, Rse(h) (Homo sapiens, UniProt Q06418); test: Millipore kinaseprofiler diversity array; assay type: biochemical; settings: 10 µM MS-0022
T22 construct: purchased Millipore (Upstate) KinaseProfiler
T22 sequence (Q06418 41-890): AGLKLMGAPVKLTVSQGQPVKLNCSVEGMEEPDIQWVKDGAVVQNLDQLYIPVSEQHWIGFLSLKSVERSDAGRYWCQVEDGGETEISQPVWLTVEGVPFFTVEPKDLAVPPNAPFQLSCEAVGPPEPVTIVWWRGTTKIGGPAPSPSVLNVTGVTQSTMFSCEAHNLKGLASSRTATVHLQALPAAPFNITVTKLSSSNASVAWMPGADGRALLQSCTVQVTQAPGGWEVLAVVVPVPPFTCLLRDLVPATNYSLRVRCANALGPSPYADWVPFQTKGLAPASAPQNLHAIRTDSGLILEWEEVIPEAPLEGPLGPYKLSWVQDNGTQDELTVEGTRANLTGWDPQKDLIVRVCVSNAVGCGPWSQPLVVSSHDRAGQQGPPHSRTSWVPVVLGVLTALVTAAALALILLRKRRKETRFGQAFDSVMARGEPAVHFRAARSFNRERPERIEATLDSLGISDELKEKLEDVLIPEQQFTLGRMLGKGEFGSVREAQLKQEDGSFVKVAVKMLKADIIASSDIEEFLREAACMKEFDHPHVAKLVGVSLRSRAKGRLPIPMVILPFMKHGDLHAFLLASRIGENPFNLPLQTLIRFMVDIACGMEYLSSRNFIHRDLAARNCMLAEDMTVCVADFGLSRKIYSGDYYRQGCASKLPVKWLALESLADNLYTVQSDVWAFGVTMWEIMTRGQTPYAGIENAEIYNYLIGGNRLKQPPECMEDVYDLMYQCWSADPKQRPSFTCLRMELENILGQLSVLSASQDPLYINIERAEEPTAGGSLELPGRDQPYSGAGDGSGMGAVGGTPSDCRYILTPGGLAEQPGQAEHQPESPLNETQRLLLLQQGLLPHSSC
Protocol: as §1

[24] = target: T23, CDK9/cyclin T1(h) (Homo sapiens, UniProt P50750); test: Millipore kinaseprofiler diversity array; assay type: biochemical; settings: 10 µM MS-0022
T23 construct: purchased Millipore (Upstate) KinaseProfiler
Protocol: as §1

[25] = target: T24, CK2α2(h) (Homo sapiens, UniProt P19784); test: Millipore kinaseprofiler diversity array; assay type: biochemical; settings: 10 µM MS-0022
T24 construct: purchased Millipore (Upstate) KinaseProfiler
Protocol: as §1

[26] = target: T25, PKCθ(h) (Homo sapiens, UniProt Q04759); test: Millipore kinaseprofiler diversity array; assay type: biochemical; settings: 10 µM MS-0022
T25 construct: purchased Millipore (Upstate) KinaseProfiler
Protocol: as §1

[27] = target: T26, IGF-1R(h) (Homo sapiens, UniProt P08069); test: Millipore kinaseprofiler diversity array; assay type: biochemical; settings: 10 µM MS-0022
T26 construct: purchased Millipore (Upstate) KinaseProfiler
Protocol: as §1

[28] = target: T27, PKBα(h) (Homo sapiens, UniProt P31749); test: Millipore kinaseprofiler diversity array; assay type: biochemical; settings: 10 µM MS-0022
T27 construct: purchased Millipore (Upstate) KinaseProfiler
Protocol: as §1

Question: With `Cc1cccn2cc(-c3ccc(NC(=O)c4ccccc4Br)cc3)nc12` [MS-0022, 2-bromo-N-(4-(8-methylimidazo[1,2-a]pyridin-2-yl)phenyl)benzamide] as the compound, how does the Cmax ([1]; male, C57BL, mouse, plasma, ip, IP, read-out: Cmax) read?
Answer: 378 ng/mL

Question: What about the Cmax ([1]; male, C57BL, mouse, plasma, iv, IV, read-out: Cmax) of the same compound?
Answer: 934 ng/mL

Question: What about the Cmax ([1]; male, C57BL, mouse, plasma, po, PO, read-out: Cmax) of the same compound?
Answer: 912 ng/mL

Question: What about the concentration at 5 min ([1]; male, C57BL, mouse, plasma, IP) of the same compound?
Answer: 30 ng/mL

Question: And the concentration at 15 min ([1]; male, C57BL, mouse, plasma, IP)?
Answer: 261 ng/mL

Question: What about the concentration at 30 min ([1]; male, C57BL, mouse, plasma, IP) of the same compound?
Answer: 378 ng/mL

Question: What about the concentration at 60 min ([1]; male, C57BL, mouse, plasma, IP) of the same compound?
Answer: 158 ng/mL

Question: And the concentration at 120 min ([1]; male, C57BL, mouse, plasma, IP)?
Answer: 56 ng/mL

Question: And the concentration at 240 min ([1]; male, C57BL, mouse, plasma, IP)?
Answer: 15 ng/mL

Question: And the concentration at 5 min ([1]; male, C57BL, mouse, plasma, IV)?
Answer: 934 ng/mL

Question: What about the concentration at 15 min ([1]; male, C57BL, mouse, plasma, IV) of the same compound?
Answer: 712 ng/mL

Question: What about the concentration at 30 min ([1]; male, C57BL, mouse, plasma, IV) of the same compound?
Answer: 626 ng/mL

Question: And the concentration at 60 min ([1]; male, C57BL, mouse, plasma, IV)?
Answer: 620 ng/mL

Question: What about the concentration at 120 min ([1]; male, C57BL, mouse, plasma, IV) of the same compound?
Answer: 253 ng/mL

Question: And the concentration at 240 min ([1]; male, C57BL, mouse, plasma, IV)?
Answer: 73 ng/mL

Question: What about the concentration at 5 min ([1]; male, C57BL, mouse, plasma, PO) of the same compound?
Answer: 468 ng/mL

Question: And the concentration at 15 min ([1]; male, C57BL, mouse, plasma, PO)?
Answer: 912 ng/mL

Question: What about the concentration at 30 min ([1]; male, C57BL, mouse, plasma, PO) of the same compound?
Answer: 461 ng/mL

Question: And the concentration at 60 min ([1]; male, C57BL, mouse, plasma, PO)?
Answer: 437 ng/mL

Question: What about the concentration at 120 min ([1]; male, C57BL, mouse, plasma, PO) of the same compound?
Answer: 180 ng/mL

Question: What about the concentration at 240 min ([1]; male, C57BL, mouse, plasma, PO) of the same compound?
Answer: 51 ng/mL

Question: What about the bioavailability ([1]; male, C57BL, plasma, po, mouse, read-out: Per oral bioavailability) of the same compound?
Answer: 98%

Question: And the AUC(0-inf) ([1]; male, C57BL, IP)?
Answer: 437 ng·h/mL

Question: What about the AUC(0-t) ([1]; male, C57BL, IP) of the same compound?
Answer: 417 ng·h/mL

Question: And the half-life ([1]; male, C57BL, IP)?
Answer: 54.8 min

Question: What about the k el ([1]; male, C57BL, IP) of the same compound?
Answer: 0.00021 s⁻¹

Question: What about the AUC(0-inf) ([1]; male, C57BL, IV) of the same compound?
Answer: 1560 ng·h/mL

Question: And the AUC(0-t) ([1]; male, C57BL, IV)?
Answer: 1460 ng·h/mL

Question: What about the half-life ([1]; male, C57BL, IV) of the same compound?
Answer: 59.3 min

Question: And the k el ([1]; male, C57BL, IV)?
Answer: 0.000195 s⁻¹

Question: And the AUC(0-inf) ([1]; male, C57BL, PO)?
Answer: 1140 ng·h/mL

Question: And the AUC(0-t) ([1]; male, C57BL, PO)?
Answer: 1070 ng·h/mL

Question: What about the half-life ([1]; male, C57BL, PO) of the same compound?
Answer: 59.1 min

Question: And the k el ([1]; male, C57BL, PO)?
Answer: 0.000195 s⁻¹

Question: What about the Cmax ([1]; IP) of the same compound?
Answer: 377.7 ng/mL

Question: What about the Cmax ([1]; IV) of the same compound?
Answer: 934.3 ng/mL

Question: And the activity at 10 µM [2]?
Answer: 106%

Question: And the activity at 10 µM [3]?
Answer: 103%

Question: And the activity at 10 µM [4]?
Answer: 107%

Question: What about the activity at 10 µM [5] of the same compound?
Answer: 96%

Question: And the activity at 10 µM [6]?
Answer: 97%

Question: And the activity at 10 µM [7]?
Answer: 100%

Question: And the activity at 10 µM [8]?
Answer: 102%

Question: And the activity at 10 µM [9]?
Answer: 110%

Question: And the activity at 10 µM [10]?
Answer: 73%

Question: And the activity at 10 µM [11]?
Answer: 88%

Question: And the activity at 10 µM [12]?
Answer: 93%

Question: And the activity at 10 µM [13]?
Answer: 103%

Question: And the activity at 10 µM [14]?
Answer: 110%

Question: And the activity at 10 µM [15]?
Answer: 106%

Question: And the activity at 10 µM [16]?
Answer: 103%

Question: What about the activity at 10 µM [17] of the same compound?
Answer: 93%

Question: What about the activity at 10 µM [18] of the same compound?
Answer: 108%

Question: What about the activity at 10 µM [19] of the same compound?
Answer: 84%

Question: What about the activity at 10 µM [20] of the same compound?
Answer: 103%

Question: What about the activity at 10 µM [21] of the same compound?
Answer: 98%

Question: And the activity at 10 µM [22]?
Answer: 102%

Question: What about the activity at 10 µM [23] of the same compound?
Answer: 107%

Question: And the activity at 10 µM [24]?
Answer: 98%

Question: What about the activity at 10 µM [25] of the same compound?
Answer: 109%

Question: What about the activity at 10 µM [26] of the same compound?
Answer: 103%

Question: And the activity at 10 µM [27]?
Answer: 105%

Question: And the activity at 10 µM [28]?
Answer: 107%
